The test has as its target mGluR5 receptor (Sus scrofa, UniProt I3LUI7). The test is described as follows: Affinity for the mGluR5 receptor: inhibition of 3[H]-MPEP binding in pig brain homogenate. The note with it: for inhibition at 10 µM: 10 μM compound, 5 nM 3[H]-MPEP, read-out: mGluR5 receptor inhibition of ^3[H]-MPEP binding [10 μM] in % at a concentration of the example compounds of 10 μM; for IC50: 3[H]-MPEP binding. How it is done: 1. Method for Determining Affinity for the mGluR5 Receptor
Pig brain homogenate is produced by homogenisation (Polytron Pt 3000, Kinematica AG, 10,000 revolutions per minute for 90 seconds) of pig brain hemispheres without medulla, cerebellum and pons in a buffer of pH 8.0 (30 mM Hepes, Sigma, order number H3375+1 tablet Complete Roche Diagnostics, order number 1836145 made up to 100 ml) in a ratio of 1:20 (brain weight/volume) and differential centrifugation at 900×g and 40,000×g. 450 μg of protein from brain homogenate is incubated in each case in 250 μl incubation batches in 96-well microtitre plates with 5 nM 3[H]-MPEP (Tocris, order number R1212) (MPEP=2-methyl-6-[…]) and the compounds to be investigated (10 μM in the test) in the buffer (as above) at room temperature for 60 minutes.
The batches are then filtered with the assistance of a Brandel Cell Harvester (Brandel, Grade Robotic 9600) on Unifilter plates with glass filter mats (Perkin Elmer, order number 6005177) and then washed 3 times with buffer (as above) using 250 μl per sample. The filter plates are then dried for 60 minutes at 55° C. Then 30 μl of Ultima Gold™ scintillating material (Packard BioScience, order number 6013159) is added per well and after 3 hours the samples are measured using the β counter (Microbeta, Perkin Elmer). Nonspecific binding is determined by the addition of 10 μM MPEP (Tocris, order number 1212).

mGluR5 receptor, sequence (I3LUI7 19-1212): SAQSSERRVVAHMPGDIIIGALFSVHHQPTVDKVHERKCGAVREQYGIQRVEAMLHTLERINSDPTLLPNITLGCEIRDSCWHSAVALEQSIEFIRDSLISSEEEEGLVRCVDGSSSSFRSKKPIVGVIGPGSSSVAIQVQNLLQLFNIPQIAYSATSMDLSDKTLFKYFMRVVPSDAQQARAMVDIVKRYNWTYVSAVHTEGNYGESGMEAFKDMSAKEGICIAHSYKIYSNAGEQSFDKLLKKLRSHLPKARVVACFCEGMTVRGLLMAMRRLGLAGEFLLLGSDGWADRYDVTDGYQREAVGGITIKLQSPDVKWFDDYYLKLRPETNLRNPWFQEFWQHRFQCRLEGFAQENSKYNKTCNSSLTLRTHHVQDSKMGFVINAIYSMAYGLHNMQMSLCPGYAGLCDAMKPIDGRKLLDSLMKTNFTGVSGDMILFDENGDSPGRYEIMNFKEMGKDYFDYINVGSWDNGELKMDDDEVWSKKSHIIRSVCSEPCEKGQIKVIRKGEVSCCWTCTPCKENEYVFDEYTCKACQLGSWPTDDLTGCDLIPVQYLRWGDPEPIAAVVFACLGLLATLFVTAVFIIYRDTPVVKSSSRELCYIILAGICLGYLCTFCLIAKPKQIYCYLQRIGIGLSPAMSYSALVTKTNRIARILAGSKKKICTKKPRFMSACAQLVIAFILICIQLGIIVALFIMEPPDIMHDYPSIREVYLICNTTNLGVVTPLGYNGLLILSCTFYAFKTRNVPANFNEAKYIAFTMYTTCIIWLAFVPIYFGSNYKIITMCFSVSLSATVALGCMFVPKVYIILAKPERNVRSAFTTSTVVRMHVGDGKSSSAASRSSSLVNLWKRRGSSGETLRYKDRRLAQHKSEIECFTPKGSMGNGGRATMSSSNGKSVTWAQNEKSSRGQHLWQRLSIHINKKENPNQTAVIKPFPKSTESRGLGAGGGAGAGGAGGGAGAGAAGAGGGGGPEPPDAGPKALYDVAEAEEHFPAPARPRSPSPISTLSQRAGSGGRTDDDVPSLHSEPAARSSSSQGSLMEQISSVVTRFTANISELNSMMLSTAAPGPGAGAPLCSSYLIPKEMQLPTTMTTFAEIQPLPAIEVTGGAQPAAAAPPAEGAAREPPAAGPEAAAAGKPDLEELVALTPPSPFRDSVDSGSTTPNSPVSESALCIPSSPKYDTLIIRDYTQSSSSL

As for `C(#Cc1ccc(-c2nc3cnccn3c2NC2CCCC2)s1)c1ccccc1` [Example 1, cyclopentyl-[2-(5-phenylethynyl-thiophen-2-yl)-imidazo[1,2-a]pyrazin-3-yl]-amine], the inhibition at 10 µM worked out at 52%.
Same read-out and setting: then `Cc1cccc2nc(-c3ccc(C#Cc4ccccc4)s3)c(NCC3CCCCC3)n12` [Example 2, cyclohexylmethyl-[5-methyl-2-(5-phenylethynyl-thiophen-2-yl)-imidazo[1,2-a]pyridin-3-yl]-amine], with 95%; and `Cc1ccc2nc(-c3ccc(C#Cc4ccccc4)s3)c(NCC3CCCCC3)n2c1` [Example 3, cyclohexylmethyl-[6-methyl-2-(5-phenylethynyl-thiophen-2-yl)-imidazo[1,2-a]pyridin-3-yl]-amine], with 95%.
Regarding `Cc1ccn2c(NCC3CCCCC3)c(-c3ccc(C#Cc4ccccc4)s3)nc2c1` [Example 4, cyclohexylmethyl-[7-methyl-2-(5-phenylethynyl-thiophen-2-yl)-imidazo[1,2-a]pyridin-3-yl]-amine], the inhibition at 10 µM was 91%.
On the same count and under the same terms, then `Cc1cccn2c(NCC3CCCCC3)c(-c3ccc(C#Cc4ccccc4)s3)nc12` [Example 5, cyclohexylmethyl-[8-methyl-2-(5-phenylethynyl-thiophen-2-yl)-imidazo[1,2-a]pyridin-3-yl]-amine], with 100%.
Still for that read-out and setting: then `Cc1cc(C)n2c(NCC3CCCCC3)c(-c3ccc(C#Cc4ccccc4)s3)nc2c1` [Example 6, cyclohexylmethyl-[5,7-dimethyl-2-(5-phenylethynyl-thiophen-2-yl)-imidazo[1,2-a]pyridin-3-yl]-amine], with 92%; and `C(#Cc1ccc(-c2nc3c(OCc4ccccc4)cccn3c2NCC2CCCCC2)s1)c1ccccc1` [Example 7, [8-benzyloxy-2-(5-phenylethynyl-thiophen-2-yl)-imidazo[1,2-a]pyridin-3-yl]-cyclohexylmethyl-amine], with 89%.
Same read-out and setting: then `C(#Cc1ccc(-c2nc3cnccn3c2NCC2CCCCC2)s1)c1ccccc1` [Example 8, cyclohexylmethyl-[2-(5-phenylethynyl-thiophen-2-yl)-imidazo[1,2-a]pyrazin-3-yl]-amine], with 100%.
With `C(#Cc1ccc(-c2nc3ncccn3c2NCC2CCCCC2)s1)c1ccccc1` [Example 9, cyclohexylmethyl-[2-(5-phenylethynyl-thiophen-2-yl)-imidazo[1,2-a]pyrimidin-3-yl]-amine], the inhibition at 10 µM came to 98%.
On the same count and under the same terms, then `COc1ccc(CNc2c(-c3ccc(C#Cc4ccccc4)s3)nc3cccc(C)n23)cc1` [Example 10, (4-methoxy-benzyl)-[5-methyl-2-(5-phenylethynyl-thiophen-2-yl)-imidazo[1,2-a]pyridin-3-yl]-amine], with 95%; and `COc1ccc(CNc2c(-c3ccc(C#Cc4ccccc4)s3)nc3ccc(C)cn23)cc1` [Example 11, (4-methoxy-benzyl)-[6-methyl-2-(5-phenylethynyl-thiophen-2-yl)-imidazo[1,2-a]pyridin-3-yl]-amine], with 82%.
On the same count and under the same terms, then `COc1ccc(CNc2c(-c3ccc(C#Cc4ccccc4)s3)nc3cc(C)ccn23)cc1` [Example 12, (4-methoxy-benzyl)-[7-methyl-2-(5-phenylethynyl-thiophen-2-yl)-imidazo[1,2-a]pyridin-3-yl]-amine], with 96%; and `COc1ccc(CNc2c(-c3ccc(C#Cc4ccccc4)s3)nc3c(C)cccn23)cc1` [Example 13, (4-methoxy-benzyl)-[8-methyl-2-(5-phenylethynyl-thiophen-2-yl)-imidazo[1,2-a]pyridin-3-yl]-amine], with 96%.
Still for that read-out and setting: then `COc1ccc(CNc2c(-c3ccc(C#Cc4ccccc4)s3)nc3cc(C)cc(C)n23)cc1` [Example 14, [5,7-dimethyl-2-(5-phenylethynyl-thiophen-2-yl)-imidazo[1,2-a]pyridin-3-yl]-(4-methoxy-benzyl)-amine], with 100%; and `COc1ccc(CNc2c(-c3ccc(C#Cc4ccccc4)s3)nc3c(OCc4ccccc4)cccn23)cc1` [Example 15, [8-benzyloxy-2-(5-phenylethynyl-thiophen-2-yl)-imidazo[1,2-a]pyridin-3-yl]-(4-methoxy-benzyl)-amine], with 98%; and `COc1ccc(CNc2c(-c3ccc(C#Cc4ccccc4)s3)nc3ccccn23)cc1` [Example 16, (4-methoxy-benzyl)-[2-(5-phenylethynyl-thiophen-2-yl)-imidazo[1,2-a]pyridin-3-yl]-amine], with 93%.
Take `COc1ccc(CNc2c(-c3ccc(C#Cc4ccccc4)s3)nc3cnccn23)cc1` [Example 17, (4-methoxy-benzyl)-[2-(5-phenylethynyl-thiophen-2-yl)-imidazo[1,2-a]pyrazin-3-yl]-amine]: the inhibition at 10 µM worked out at 96%.
On to `CC(C)(C)Nc1c(-c2ccc(C#Cc3ccccc3)s2)nc2cnccn12` [Example 18, tert-butyl-[2-(5-phenylethynyl-thiophen-2-yl)-imidazo[1,2-a]pyrazin-3-yl]-amine], for which the IC50 stood at 64 nM.
For the compound `Cc1ccc2nc(-c3ccc(C#Cc4ccccc4)s3)c(NC(C)(C)C)n2c1` [Example 19, tert-butyl-[6-methyl-2-(5-phenylethynyl-thiophen-2-yl)-imidazo[1,2-a]pyridin-3-yl]-amine], the inhibition at 10 µM amounted to 78%.
On the same count and under the same terms, then `COc1cccc(Nc2c(-c3ccc(C#Cc4ccccc4)s3)nc3c(OCc4ccccc4)cccn23)c1` [Example 20, [8-benzyloxy-2-(5-phenylethynyl-thiophen-2-yl)-imidazo[1,2-a]pyridin-3-yl]-(3-methoxy-phenyl)-amine], with 79%; and `COc1cccc(CNc2c(-c3ccc(C#Cc4ccccc4)s3)nc3cccc(C)n23)c1` [Example 21, (3-methoxy-benzyl)-[5-methyl-2-(5-phenylethynyl-thiophen-2-yl)-imidazo[1,2-a]pyridin-3-yl]-amine], with 91%; and `COc1cccc(CNc2c(-c3ccc(C#Cc4ccccc4)s3)nc3c(C)cccn23)c1` [Example 22, (3-methoxy-benzyl)-[8-methyl-2-(5-phenylethynyl-thiophen-2-yl)-imidazo[1,2-a]pyridin-3-yl]-amine], with 84%.
For the compound `COc1cccc(CNc2c(-c3ccc(C#Cc4ccccc4)s3)nc3cc(C)cc(C)n23)c1` [Example 23, [5,7-dimethyl-2-(5-phenylethynyl-thiophen-2-yl)-imidazo[1,2-a]pyridin-3-yl]-(3-methoxy-benzyl)-amine], the inhibition at 10 µM was found to be 86%.
Same read-out and setting: then `COc1cccc(CNc2c(-c3ccc(C#Cc4ccccc4)s3)nc3c(OCc4ccccc4)cccn23)c1` [Example 24, [8-benzyloxy-2-(5-phenylethynyl-thiophen-2-yl)-imidazo[1,2-a]pyridin-3-yl]-(3-methoxy-benzyl)-amine], with 94%; and `COc1cccc(CNc2c(-c3ccc(C#Cc4ccccc4)s3)nc3ccccn23)c1` [Example 25, (3-methoxy-benzyl)-[2-(5-phenylethynyl-thiophen-2-yl)-imidazo[1,2-a]pyridin-3-yl]-amine], with 81%.
Still for that read-out and setting: then `COc1cccc(CNc2c(-c3ccc(C#Cc4ccccc4)s3)nc3cnccn23)c1` [Example 26, (3-methoxy-benzyl)-[2-(5-phenylethynyl-thiophen-2-yl)-imidazo[1,2-a]pyrazin-3-yl]-amine], with 97%.
Still for that read-out and setting: then `Cc1ccc2nc(-c3ccc(C#Cc4ccccc4)s3)c(NC(C)c3ccccc3)n2c1` (centres unmarked) [Example 27, [6-methyl-2-(5-phenylethynyl-thiophen-2-yl)-imidazo[1,2-a]pyridin-3-yl]-(1-phenyl-ethyl)-amine], with 82%; and `Cc1ccn2c(NC(C)c3ccccc3)c(-c3ccc(C#Cc4ccccc4)s3)nc2c1` (centres unmarked) [Example 28, [7-methyl-2-(5-phenylethynyl-thiophen-2-yl)-imidazo[1,2-a]pyridin-3-yl]-(1-phenyl-ethyl)-amine], with 98%; and `Cc1cc(C)n2c(NC(C)c3ccccc3)c(-c3ccc(C#Cc4ccccc4)s3)nc2c1` (centres unmarked) [Example 29, [5,7-dimethyl-2-(5-phenylethynyl-thiophen-2-yl)-imidazo[1,2-a]pyridin-3-yl]-(1-phenyl-ethyl)-amine], with 87%.
For the compound `CC(Nc1c(-c2ccc(C#Cc3ccccc3)s2)nc2c(OCc3ccccc3)cccn12)c1ccccc1` (centres unmarked) [Example 30, [8-benzyloxy-2-(5-phenylethynyl-thiophen-2-yl)-imidazo[1,2-a]pyridin-3-yl]-(1-phenyl-ethyl)-amine], the inhibition at 10 µM came to 73%.
As for `CC(Nc1c(-c2ccc(C#Cc3ccccc3)s2)nc2cnccn12)c1ccccc1` (centres unmarked) [Example 31, (1-phenyl-ethyl)-[2-(5-phenylethynyl-thiophen-2-yl)-imidazo[1,2-a]pyrazin-3-yl]-amine], the IC50 was 530 nM.
Regarding `Cc1cc(C)n2c(NCc3ccccc3Cl)c(-c3ccc(C#Cc4ccccc4)s3)nc2c1` [Example 32, (2-chloro-benzyl)-[5,7-dimethyl-2-(5-phenylethynyl-thiophen-2-yl)-imidazo[1,2-a]pyridin-3-yl]-amine], the inhibition at 10 µM worked out at 98%.

Usually IC50 stands for the point on the concentration scale where inhibition reaches its midpoint.

Values taken from patent US7420056B2, “Substituted bicyclic imidazo-3-ylamine compounds” (Gruenenthal GmbH, priority 2004, dated 2008).
